Data taken from patent US20250127755A1, “PHARMACOLOGICAL DEPLETION OF HEME FOR THE TREATMENT OF MYELODYSPLASTIC SYNDROME” (THE SCRIPPS RESEARCH INSTITUTE, priority 2021, published 2025).
Values belong to the compound of their own block, whether it stands above or below them.

Tests used:
MDS-L cells [1] = assay: MDS-L differentiation assay (GlyA positivity, 384-well FACS-based); conditions: for Maximal MDS-LGlyA fold induction: human; for EC50: read-out: MDS-L GlyA induction EC50; for inducing differentiation to more terminal blood lineages (GlyA immunopositivity): 384-well FACS-based assay
Protocol: MDS-L differentiation assay. Given a limited number of patient samples and the low yield from each biopsy, it is not tractable to conduct high-throughput screens with primary cells.
To establish a screening assay, we selected known differentiation inducers of acute myeloid leukemia cells including retinoic acid (ATRA), Brequinar, and phorbol 12-myristate 13-acetate (PMA).
MDS-L were cultured in RPMI (17-105-CV, Corning) without phenol red and supplemented with 2 mM glutamine and 10% FBS. Cells first expanded in IL-3 until 70% confluence then pre-conditioned for 14 days with IL-3 (200-03, PeproTech), GCSF (300-23, PeproTech), and EPO (287-TC, R&D Systems) to promote erythroid and myeloid differentiation. A density of 10000 cells per well were used in phenotypic assays. MDSL cells were spun and treatment media was replaced with media containing APC Anti-CD235a (GlyA) (551336. BD Biosciences) (1.25 μL per 50 μL test) and incubated for 1 hour at 4° C. Cells were washed then counter stained with SYTOX-Green 1 μM per 100 μL prior to flow cytometry, analysis. Dose response and pharmacological assays were analyzed using a ZE5 Cell Analyzer (BioRad) equipped with Everest software. Single, live, cells were analyzed for GlyA expression using FlowJo v10.7.2 software.

MDS-L cells [2] = assay: Heme levels of MDS-L cells; assay type: cell-based; conditions: over relevant time periods, FIG. 4B
Protocol: FIG. 4A-FIG. 4C. Heme depletion induces terminal differentiation of MDS-L cells. A: Relative induction of GlyA positive MDS-L cells in response to treatment for 96 hours with the indicated concentrations of NMPP. B: Heme levels of MDS-L cells treated with the indicated compounds. C: Relative induction of GlyA positive cells after 96-hour treatment with artemisone and hemin.
An additional consequence of this mechanism is the alkylation of artemisinin to heme, resulting in its functional inactivation. Because we found no other reactive oxygen species (ROS)-inducers or alkylators as active hits from the screen, we reasoned that heme depletion is a way in which artemisinins promote differentiation of this cellular population.

MDS-L cells [3] = assay: CFU assays of MDS-L cells; assay type: cell-based
MDS-L cells [4] = assay: Loss of CD71; assay type: cell-based
MDS-L cells [5] = assay: Induction of apoptosis; assay type: cell-based; conditions: below 20 μM

Maximal MDS-LGlyA fold induction (MDS-L cells [1]): 7.09 fold
EC50 (MDS-L cells [1]): 610 nM
Compound: C[C@H]1[C@@H](O)O[C@@H]2O[C@@]3(C)CC[C@H]4[C@H](C)CC[C@@H]1[C@@]24OO3 [Dihydroarte misin, dihydroartemisinin]

Compound: CC1=C(/C=C/C(C)=C/C=C/C(C)=C/C(=O)O)C(C)(C)CCC1 [ATRA, retinoic acid]
cytotoxicity as readout by live dead cell gating (MDS-L cells [1]; MDS-L cells, FIG. 2): minimal cytotoxicity

Compound: C[C@@H]1CC[C@H]2[C@@H](C)C(=O)O[C@@H]3O[C@@]4(C)CC[C@@H]1[C@]32O4 [2-deoxy-artemisinin]
activity in differentiation assays (MDS-L cells [1]): inactive

Compound: CCCCCCCCCCCCCC(=O)O[C@@H]1[C@@H](C)[C@@]2(O)[C@@H](C=C(CO)C[C@]3(O)C(=O)C(C)=C[C@@H]23)[C@@H]2C(C)(C)[C@]12OC(C)=O [PMA, phorbol 12-myristate 13-acetate]
inducing differentiation to more terminal blood lineages (GlyA immunopositivity) (MDS-L cells [1]; MDS-L cells): efficacious

Maximal MDS-LGlyA fold induction (MDS-L cells [1]): 7.26 fold
EC50 (MDS-L cells [1]): 30 nM
Compound: C[C@H]1[C@@H](OCc2ccc(C(=O)O)cc2)O[C@@H]2O[C@@]3(C)CC[C@H]4[C@H](C)CC[C@@H]1[C@@]24OO3 [Artelinic acid (artelinate), Artelinic acid]

Compound: N-methylprotoporphyrin [NMPP]
GlyA positivity in MDS-L cells (MDS-L cells [1]; treatment for 96 hours, FIG. 4A): increase
levels of labile heme in MDS-L cells (MDS-L cells [2]): efficiently reduced

Compound: Cc1c(-c2ccc(-c3ccccc3F)cc2)nc2ccc(F)cc2c1C(=O)O [Brequinar]
inducing differentiation to more terminal blood lineages (GlyA immunopositivity) (MDS-L cells [1]; MDS-L cells): efficacious

Maximal MDS-LGlyA fold induction (MDS-L cells [1]): 6.84 fold
EC50 (MDS-L cells [1]): 150 nM
Compound: C[C@H]1[C@H](N2CCS(=O)(=O)CC2)O[C@@H]2O[C@@]3(C)CC[C@H]4[C@H](C)CC[C@@H]1[C@@]24OO3 [Artemisone]
potential to induce differentiation of MDS-L cells on addition of exogenous heme (hemin) (MDS-L cells [1]; 96-hour treatment with artemisone and hemin, FIG. 4C): suppressed
number of BFU-E, CFU-GM and CFU-GEMM type colonies (MDS-L cells [3]): decreasing
terminal differentiation of MDS-L cells to CFU-Es (MDS-L cells [3]): efficaciously induced
loss of CD71 (MDS-L cells [4]): efficaciously promoted
induction in apoptosis (MDS-L cells [5]): no significant induction
levels of labile heme in MDS-L cells (MDS-L cells [2]): efficiently reduced

Maximal MDS-LGlyA fold induction (MDS-L cells [1]): 7.51 fold
EC50 (MDS-L cells [1]): 850 nM
Compound: C[C@H]1[C@H](OC(=O)CCC(=O)O)O[C@@H]2O[C@@]3(C)CC[C@H]4[C@H](C)CC[C@@H]1[C@@]24OO3 (stereo in doubt) [Artesunate]

Maximal MDS-LGlyA fold induction (MDS-L cells [1]): 3.82 fold
EC50 (MDS-L cells [1]): 580 nM
Compound: CCO[C@H]1O[C@@H]2O[C@@]3(C)CC[C@H]4[C@H](C)CC[C@@H]([C@H]1C)[C@@]24OO3 [Arteether]
number of BFU-E, CFU-GM and CFU-GEMM type colonies (MDS-L cells [3]): decreasing
terminal differentiation of MDS-L cells to CFU-Es (MDS-L cells [3]): efficaciously induced
loss of CD71 (MDS-L cells [4]): efficaciously promoted
induction in apoptosis (MDS-L cells [5]): no significant induction

Maximal MDS-LGlyA fold induction (MDS-L cells [1]): 3.71 fold
EC50 (MDS-L cells [1]): 5650 nM
Compound: c1cc([C@H]2CC[C@]3(CC2)OOC2(O3)[C@@H]3C[C@H]4C[C@H](C[C@@H]2C4)C3)ccc1OCCN1CCOCC1 (stereo partly drawn) [Artefenomel (OZ-439), Artefenomel]

Maximal MDS-LGlyA fold induction (MDS-L cells [1]): 7.02 fold
EC50 (MDS-L cells [1]): 1740 nM
Compound: CC(C)(N)CNC(=O)C[C@H]1CC[C@]2(CC1)OO[C@]1(O2)[C@@H]2C[C@H]3C[C@@H](C2)C[C@@H]1C3 [Arterolane (OZ-277), Arterolane]
